Assay results reported in US9693997B2, “Antiviral compounds” (priority 2013, dated 2017).

Assays:
Assay in all cases: microbe, parasite or virus in culture
[1] = system: Pseudotyped HCV GT1b particles (HCVpp), entry into Huh7-high CD81 cells; format: cell-based, HCV GT1b Con1 strain; settings: Hepatitis C virus, GT1B, 72 h, read-out: HCVpp GT-1b (EC50, μM)
[2] = system: Pseudotyped HCV GT1a particles (HCVpp), entry into Huh7-high CD81 cells; format: cell-based, HCV GT1a H77 strain; settings: Hepatitis C virus, 72 h, read-out: HCVpp GT-1a (EC50, μM)
[3] = system: pseudotyped VSV G particles (VSVpp) in Huh7-high CD81 cells; format: cell-based, vesicular stomatitis virus; settings: Vesicular stomatitis virus, 72 h, read-out: VSVpp (EC50, μM)

**Q.** With Nc1nc(Nc2cc(Cl)c(-c3ccccc3Cl)c(Cl)c2)n[nH]1 [Compound 101, N-3-(2,6,2′-Trichloro-biphenyl-4-yl)-1H-[1,2,4]triazole-3,5-diamine] as the compound, how does the EC50 [1] read?
**A.** 0.514 µM

**Q.** And the EC50 [2]?
**A.** 0.037 µM

**Q.** What about the EC50 [3] of the same compound?
**A.** 13.2 µM

**Q.** What does the source list for N#CCCCOc1ccc(-c2c(Cl)cc(Nc3n[nH]c(N)n3)cc2Cl)cc1 [Compound 26, 4-[4′-(5-Amino-1H-[1,2,4]triazol-3-ylamino)-2′,6′-dichloro-biphenyl-4-yloxy]-butyronitrile]?
**A.** EC50 [1]: 0.116 µM; EC50 [2]: 0.008 µM; EC50 [3]: 3.79 µM

**Q.** Nc1nc(Nc2cc(Cl)c(-c3cccc4ccccc34)c(Cl)c2)n[nH]1 [Compound 95, N-3-(3,5-Dichloro-4-naphthalen-1-yl-phenyl)-1H-[1,2,4]triazole-3,5-diamine] was tested. Which EC50 [1] did it give?
**A.** 0.229 µM

**Q.** And the EC50 [2]?
**A.** 0.028 µM

**Q.** And the EC50 [3]?
**A.** 24.1 µM

**Q.** How did the EC50 [1] turn out when Nc1nc(Nc2cc(Cl)c(-c3ccccc3)c(Cl)c2)n[nH]1 [Compound 48, N*3*-(2,6-Dichloro-biphenyl-4-yl)-1H-[1,2,4]triazole-3,5-diamine] was run?
**A.** 0.533 µM

**Q.** And the EC50 [2]?
**A.** 0.01 µM

**Q.** What about the EC50 [3] of the same compound?
**A.** 30.5 µM

**Q.** Which results are given for N#Cc1ccc(-c2c(Cl)cc(Nc3n[nH]c(N)n3)cc2Cl)cc1 [Compound 93, 4′-(5-Amino-1H-1,2,4-triazol-3-ylamino)-2′,6′-dichlorobiphenyl-4-carbonitrile]?
**A.** EC50 [1]: 0.364 µM; EC50 [2]: 0.015 µM; EC50 [3]: 14.8 µM

**Q.** For Nc1nc(Nc2cc(Cl)c(-c3ccc(OC(F)(F)F)cc3)c(Cl)c2)n[nH]1 [Compound 91, N-3-(2,6-Dichloro-4′-trifluoromethyoxy-biphenyl-4-yl)-1H[1,2,4]triazole-3,5-diamine], which EC50 [1] is on record?
**A.** 1.13 µM

**Q.** What about the EC50 [2] of the same compound?
**A.** 0.065 µM

**Q.** What about the EC50 [3] of the same compound?
**A.** 23.3 µM

**Q.** Which EC50 [1] does the source give for CS(=O)(=O)Nc1ccc(-c2c(F)cc(Nc3nc(N)n[nH]3)cc2C(F)(F)F)cc1 [Compound 242, N-[4′-(5-Amino-2H-[1,2,4]-triazol-3-ylamino)-6′-fluoro-2′-trifluoromethyl-biphenyl-4-yl]-methanesulfonamide] here?
**A.** 0.113 µM

**Q.** What about the EC50 [2] of the same compound?
**A.** 0.061 µM

**Q.** And the EC50 [3]?
**A.** > 10 µM

**Q.** How did the EC50 [1] turn out when NC(=O)c1ccc(-c2c(Cl)cc(Nc3n[nH]c(N)n3)cc2Cl)cc1 [Compound 159, 4′-(5-amino-1H-1,2,4-triazol-3-ylamino)-2′,6′-dichlorobiphenyl-4-carboxamide] was run?
**A.** 0.164 µM

**Q.** And the EC50 [2]?
**A.** 0.005 µM

**Q.** What about the EC50 [3] of the same compound?
**A.** 4.62 µM

**Q.** Which results are given for Nc1nc(Nc2cc(Cl)c(-c3ccc(S(=O)(=O)N[C@H]4C[C@H](O)C4)cc3)c(C(F)(F)F)c2)n[nH]1 [Compound 173, 4′-(5-amino-1H-1,2,4-triazol-3-ylamino)-2′-chloro-N-(trans-3-hydroxycyclobutyl)-6′-(trifluoromethyl)biphenyl-4-sulfonamide]?
**A.** EC50 [1]: 0.019 µM; EC50 [2]: 0.007 µM; EC50 [3]: > 10 µM

**Q.** For Nc1nc(Nc2cc(Cl)c(-c3cccc(C(=O)O)c3)c(Cl)c2)n[nH]1 [Compound 106, 4′-(5-Amino-1H-[1,2,4]triazol-3-ylamino)-2′,6′-dichloro-biphenyl-3-carboxylic acid], which EC50 [1] is on record?
**A.** 23.4 µM

**Q.** What about the EC50 [2] of the same compound?
**A.** 1.17 µM

**Q.** And the EC50 [3]?
**A.** 100 µM

**Q.** What does the source list for Nc1nc(Nc2cc(Cl)c(-c3cccc(Cl)c3)c(Cl)c2)n[nH]1 [Compound 92, N3-(2,3′,6-Trichlorobiphenyl-4-yl)-1H-1,2,4-triazole-3,5-diamine]?
**A.** EC50 [1]: 0.57 µM; EC50 [2]: 0.034 µM; EC50 [3]: 35.5 µM

**Q.** Which results are given for N#Cc1ccccc1-c1c(Cl)cc(Nc2n[nH]c(N)n2)cc1Cl [Compound 104, 4′-(5-Amino-1H-[1,2,4]triazol-3-ylamino)-2′,6′-dichloro-biphenyl-2-carbonitrile]?
**A.** EC50 [1]: 1.28 µM; EC50 [2]: 0.072 µM; EC50 [3]: 17.8 µM

**Q.** With N#Cc1cc(-c2c(Cl)cc(Nc3n[nH]c(N)n3)cc2Cl)ccc1Cl [Compound 105, 4′-(5-Amino-1H-[1,2,4]triazol-3-ylamino)-4,2′,6′-trichloro-biphenyl-3-carbonitrile] as the compound, how does the EC50 [1] read?
**A.** 0.472 µM

**Q.** What about the EC50 [2] of the same compound?
**A.** 0.039 µM

**Q.** And the EC50 [3]?
**A.** 16.8 µM

**Q.** With Nc1nc(Nc2ccc(-c3ccc(F)c(F)c3)c(Cl)c2)n[nH]1 [Compound 147, N*3*-(2-Chloro-3′,4′-difluoro-biphenyl-4-yl)-1H-[1,2,4]triazole-3,5-diamine] as the compound, how does the EC50 [1] read?
**A.** 6.12 µM

**Q.** And the EC50 [2]?
**A.** 0.621 µM

**Q.** And the EC50 [3]?
**A.** 47.2 µM

**Q.** Which EC50 [1] does the source give for CN(C)S(=O)(=O)c1ccc(-c2c(Cl)cc(Nc3n[nH]c(N)n3)cc2Cl)cc1 [Compound 123, 4′-(5-Amino-1H-[1,2,4]triazol-3-ylamino)-2′,6′-dichloro-biphenyl-4-sulfonic acid dimethylamide] here?
**A.** 0.042 µM

**Q.** And the EC50 [2]?
**A.** 0.002 µM

**Q.** And the EC50 [3]?
**A.** 11 µM

**Q.** What does the source list for Nc1nc(Nc2cc(Cl)c(-c3ccc(NC(=O)CCCC[C@@H]4SC[C@@H]5NC(=O)N[C@@H]54)cc3)c(Cl)c2)n[nH]1 [Compound 39, 5-((3aS,4S,6aR)-2-Oxo-hexaneahydro-thieno[3,4-d]imidazol-4-yl)-pentanoic acid [4′-(5-amino-1H-[1,2,4]triazol-3-ylamino)-2′,6′-dichloro-biphenyl-4-yl]-amide]?
**A.** EC50 [1]: 0.09 µM; EC50 [2]: 0.002 µM; EC50 [3]: > 10 µM

**Q.** For Nc1nc(Nc2cc(Cl)c(-c3ccc(NC(=O)CN4CCS(=O)(=O)CC4)cc3)c(C(F)(F)F)c2)n[nH]1 [Compound 240], which EC50 [1] is on record?
**A.** 0.171 µM

**Q.** What about the EC50 [2] of the same compound?
**A.** 0.011 µM

**Q.** What about the EC50 [3] of the same compound?
**A.** > 10 µM

**Q.** Which results are given for CS(=O)(=O)Cc1ccc(-c2c(Cl)cc(Nc3n[nH]c(N)n3)cc2Cl)cc1 [Compound 31, N*3*-(2,6-Dichloro-4′-methanesulfonylmethyl-biphenyl-4-yl)-1H-[1,2,4]triazole-3,5-diamine]?
**A.** EC50 [1]: 0.086 µM; EC50 [2]: 0.004 µM; EC50 [3]: 3.23 µM

**Q.** How did the EC50 [1] turn out when COc1cccc(-c2c(Cl)cc(Nc3n[nH]c(N)n3)cc2Cl)c1 [Compound 100, N-3-(2,6-Dichloro-3′-methoxy-biphenyl-4-yl)-1H-[1,2,4]triazole-3,5-diamine] was run?
**A.** 0.839 µM

**Q.** What about the EC50 [2] of the same compound?
**A.** 0.062 µM

**Q.** What about the EC50 [3] of the same compound?
**A.** 14.3 µM

**Q.** What does the source list for Nc1nc(Nc2ccc(-c3ccccc3)cc2)n[nH]1 [Compound 55, N*3*-Biphenyl-4-yl-1H-[1,2,4]triazole-3,5-diamine]?
**A.** EC50 [1]: 100 µM; EC50 [2]: 25.1 µM; EC50 [3]: 100 µM

**Q.** Which results are given for CNC(=O)c1ccc(-c2c(Cl)cc(Nc3n[nH]c(N)n3)cc2Cl)cc1 [Compound 116, 4′-(5-Amino-1H-[1,2,4]triazol-3-ylamino)-2′,6′-dichloro-biphenyl-4-carboxylic acid methylamide]?
**A.** EC50 [1]: 0.086 µM; EC50 [2]: 0.002 µM; EC50 [3]: 29.4 µM

**Q.** What does the source list for Nc1nc(Nc2cc(Cl)c(-c3ccc(S(=O)(=O)N4CCCC4)cc3)c(C(F)(F)F)c2)n[nH]1 [Compound 170, N3-(2-chloro-4′-(pyrrolidin-1-ylsulfonyl)-6-(trifluoromethyl)biphenyl-4-yl)-1H-1,2,4-triazole-3,5-diamine]?
**A.** EC50 [1]: 0.026 µM; EC50 [2]: 0.02 µM; EC50 [3]: 14.1 µM

**Q.** How did the EC50 [1] turn out when CC(=O)c1ccc(-c2c(Cl)cc(Nc3n[nH]c(N)n3)cc2Cl)cc1 [Compound 107, 1-[4′-(5-Amino-1H-[1,2,4]triazol-3-ylamino)-2′,6′-dichloro-biphenyl-4-yl]-ethanone] was run?
**A.** 0.228 µM

**Q.** And the EC50 [2]?
**A.** 0.008 µM

**Q.** And the EC50 [3]?
**A.** 11.1 µM

**Q.** What does the source list for CC(C)S(=O)(=O)c1ccc(-c2c(Cl)cc(Nc3n[nH]c(N)n3)cc2Cl)cc1 [Compound 122, N-3-[2,6-Dichloro-4′-(propane-2-sulfonyl)-biphenyl-4-yl]-1H-[1,2,4]triazole-3,5-diamine]?
**A.** EC50 [1]: 0.024 µM; EC50 [2]: 0.004 µM; EC50 [3]: 12.1 µM

**Q.** For Nc1nc(Nc2cc(Cl)c(-c3ccc(S(=O)(=O)N[C@H]4CC[C@H](O)CC4)cc3)c(C(F)(F)F)c2)n[nH]1 [Compound 184, 4′-(5-amino-1H-1,2,4-triazol-3-ylamino)-2′-chloro-N-(trans-4-hydroxycyclohexyl)-6′-(trifluoromethyl)biphenyl-4-sulfonamide], which EC50 [1] is on record?
**A.** 0.05 µM

**Q.** What about the EC50 [2] of the same compound?
**A.** 0.028 µM

**Q.** What about the EC50 [3] of the same compound?
**A.** > 10 µM
